The values that follow come from patent US20230167155A1, “COMPOSITIONS AND METHODS” (KING'S COLLEGE LONDON, priority 2020, published 2023).

In assay [1] the test system is ApoE−/− mice. The note with it: 22 week old animals, daily treatment for 6 weeks, clinically relevant doses; cited from earlier work.
Assay [2] deals with patients with stable atherosclerotic cardiovascular disease. As to conditions: addition to aspirin; cited from earlier work.
The target in another assay is T1, PAR1 (Homo sapiens, UniProt P25116).
T1 sequence (P25116 22-425): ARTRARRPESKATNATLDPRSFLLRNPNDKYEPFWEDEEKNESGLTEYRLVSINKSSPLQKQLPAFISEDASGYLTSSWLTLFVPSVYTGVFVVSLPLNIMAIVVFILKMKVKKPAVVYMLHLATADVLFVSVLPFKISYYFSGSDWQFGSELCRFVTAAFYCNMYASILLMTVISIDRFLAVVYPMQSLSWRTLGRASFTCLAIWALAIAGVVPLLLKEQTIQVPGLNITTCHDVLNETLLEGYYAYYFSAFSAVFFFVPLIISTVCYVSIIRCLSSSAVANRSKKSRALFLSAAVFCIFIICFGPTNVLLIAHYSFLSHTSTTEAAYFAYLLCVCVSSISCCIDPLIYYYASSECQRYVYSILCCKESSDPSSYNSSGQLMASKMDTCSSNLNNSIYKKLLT
Set-up: host or cells: patients. As to conditions: patients with stable atherosclerosis; cited from earlier work.

Assay [3] relates to ApoE−/− mice. The assay is described as follows: Regression of established atheroma, weekly IV injections (Oil Red O en face, aortic root). The format is in vivo, mouse. On the procedure: For all atherosclerosis work, male ApoE−/− mice, from the age of 6-weeks, were fed with a high fat diet (HFD) consisting 35 kcal % fat, 1.25% cholesterol, and 0.5% cholic acid (Special Diet Services, Essex UK). Aortas were transplanted 2 weeks after starting the HFD, using a sleeve anastomosis technique described previously^11. Briefly, a 5 mm of the segment of the infrarenal donor aorta, flushed with 300 μl of saline containing 50 U of heparin, was transplanted into ApoE−/− recipient abdomen aortas (N=6 per group). Blood flow was confirmed by direct inspection after removal of the clamps. Mice were fed a HFD for 6-12 weeks post-transplantation before the experiment was terminated (Suppl FIG. 1A). To assess prevention of atheroma, mice (n=6 per group) received a single injection of PTL060 or controls by tail vein, and the experiments terminated 1-3 weeks later (Suppl FIG. 1B). For regression experiments, baseline groups (n=6) were fed a HFD to the age of 22 weeks before the mice were sacrificed. Experimental or control groups (n=3-6 per group) received weekly injections by tail vein for 3-6 weeks, beginning at age of 22 weeks before the experiments were terminated when mice were 25-28 weeks old (Suppl FIG. 1C).
Atherosclerotic lesions were evaluated as previously described^11. Simply, the entire length of the aorta was perfused with PBS, dissected using a dissecting microscope, longitudinally opened and stained with Oil Red O (ORO) solution (Sigma, UK) for 30 minutes, before being photographed with a digital camera (DSC-W320, Sony, Japan). The total aortic area and lesional area were measured by using Image J. Aortas from every animal were assessed. To assess lesions in the aortic sinus, hearts were embedded in paraffin, sectioned through the aortic root and incubated with elastin/van Gieson stain using the Accustain™ Elastin Stain kit (Sigma). Sections were examined on an Olympus U-ULH optical microscope (Olympus Optical Co. Ltd, Tokyo, Japan). Atheromatous lesional and total aortic root area was determined using Image-Pro Plus TM software version 4.0 (Media Cybernetics, Silver Spring, USA). At least three random sections were examined from each mouse in all groups.

The subject of the next assay is TNFα, IFNγ, MIF and CCL2. As to the kind of experiment: Plasma cytokines and chemokines by ELISA. The class given is in vivo, mouse. The note with it: HFD, weekly IV for 6 weeks, equimolar to PTL060 10 μg/g. Here is the method:
Anticoagulated whole blood (EDTA 30 mM pH8) was separated into plasma and cells by centrifugation (14,000 g for 10 mins). Plasma TNFα, IFN-γ, MIF and CCL2 were detected using separate specific ELISA kits (R&D Systems, Abingdon, UK) according to the manufacturers' instructions. Total cholesterol, high-density lipoprotein and low-density lipoprotein were determined using kits from Cell Biolabs, and Tryglycerides with a kit from Abcam, (both Cambridge, UK) according to the manufacturer's protocol. Thrombin clotting times were measured in 3.2% trisodium citrated plasma according to the protocol of Ignjatovic^16. Briefly, 100 μl mouse plasma was incubated with 2.5 U of human thrombin in a total volume of 300 μl (Enzyme Research Laboratories (ERL), Swansea, UK) at 37° C., and the time for a clot to form was measured (n=6 per group). For some experiments plasma was further centrifuged (20,000 g for 10 mins) to minimise the presence of extracellular vesicles.
FIG. 18: Illustrating the systemic proinflammatory state that accompanies development of atherosclerosis in ApoE^−/− mice fed a high fat diet, and the impact of PTL032 on that inflammation, compared to PTL060 and controls. Cytokines (interferon-gamma TNFalpha) and chemokines (macrophage migration inhibitory factor, MIF and CCL2) measured by ELISA of plasma samples harvested from mice at the times indicated. HFD=high fat diet. […]
In general terms: An ELISA detects its analyte on a solid surface through an enzyme-linked reagent.

The test system of another assay is MIF. The assay is described as follows: Vessel wall chemokine (MIF, CCL2) expression after IV injection, immunofluorescence. The class given is in vivo, mouse. The note with it: single IV injection, PTL060 or equimolar dose. Here is the method:
Immunohistology of frozen cross sections were prepared and examined as previously described^11. Briefly, isolated tissues were snap-frozen and embedded in OCT compound (VWR International, Dorset, UK), sectioned at 5 μm thickness and fixed in methanol at −20° C. Frozen sections were immersed in 1% bovine serum albumin-phosphate-buffered saline (BSA-PBS) for 30 minutes and then incubated overnight at 4° C. with one or more of the following antibodies: rabbit polyclonal antibody to CD68, iNOs, CD206, TNFα, MIF, CCR7 ABCA1 (all from Abcam, Cambridge, UK), or hirudin (Biobyt, Cambridge, UK) or CCL2 (Lifespan BioScience, Inc., WA 98121, USA); goat polyclonal antibody to CD31 (Santa Cruz Biotechnology, Texas 75220, USA); rat anti-mouse CD68, CD11b (Serotec, Oxford, United Kingdom), CD31, IFNγ (BD Bioscience Pharmingen, Oxford, United Kingdom), Ly-6G (BioLegend, London, UK), IL-10 (Abcam) or biotinylated anti-HLL (RICS-2)^14; mouse anti-CCR2 (Abcam). […] Quantification of staining was achieved by expressing the area of positive staining as a ratio of the total lesion area, calculated using Image-Pro Plus TM, version 4.0. All quantification was performed by members of the team blinded to the identity of the sections. […] To detect macrophage-derived foam cells, frozen sections of aortic sinus were analysed by a combination of ORO staining and CD68 immunostaining. […]

With `O=C(NC[C@H]1CN(c2ccc(N3CCOCC3=O)cc2)C(=O)O1)c1ccc(Cl)s1` [rivaroxaban], the “atheroma burden reduced by” value in the assay on ApoE−/− mice [1] was 25%. Further, the “deaths, strokes and myocardial infarction” value in assay [2] is “fewer deaths, strokes and myocardial infarction”.

As to `CCOC(=O)N[C@@H]1CC[C@@H]2[C@@H](C1)C[C@H]1C(=O)O[C@H](C)[C@H]1[C@H]2/C=C/c1ccc(-c2cccc(F)c2)cn1` [vorapaxar], the “risk of myocardial infarction” value on PAR1 is “reduce the risk of myocardial infarction”.

With “[Myr2]-KSSKSPSKKDDKKPGDC(S—S—CH2-CH2-Phe-Cha-Cha-Arg-Lys-Pro-Asn-Asp-Lys-NH2)NH2 [PTL032]”, the “animals with atherosclerotic plaques essentially completely eliminated” value in the assay on ApoE−/− mice [3] (HFD 16 weeks, then PTL032 7 μg/g weekly IV for 6 weeks) is recorded as 4 out of the 6. The “regression of atherosclerosis in direct comparison with PTL060” value with ApoE−/− mice [3] (equimolar doses (PTL032 7 μg/g, PTL060 10 μg/g), weekly IV 6 weeks) was “considerably better regression of atherosclerosis than PTL060”. For the same compound, in the assay on TNFα, IFNγ, MIF and CCL2, the “plasma chemokines and cytokines (IFNγ, TNFα, MIF, CCL2)” value was “suppression of important chemokines and cytokines, almost back to levels seen in very young mice”.

On to bivalirudin, for which the “suppression of vessel wall chemokine (MIF) expression” value in the assay with MIF is “not”. In addition, the “atheroma burden after weekly injections” value in the assay on ApoE−/− mice [3] (HFD from age 6 to 22 weeks, then weekly IV for 6 weeks, PTL060 10 μg/g or equimolar doses of controls) was “developed increasing atheroma burden equivalent to that seen in saline control mice”.
